The structures appear in SMILES notation. “And” between values parts separate entries of the source, which are not always exact repeats. Identical values can stand only once.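 Values below derive from 48-hour exposures of cells grown in 96-well plates, with endpoints linearly interpolated between the two concentrations bracketing the appropriate inhibition level. The concentration for 50% growth inhibition is given as GI50. TGI: concentration producing complete growth inhibition.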

Some test systems named below: LOX IMVI melanoma; SNB-19 CNS; DU-145 prostate; MDA-MB-231 breast; RPMI-8226 leukemia; SK-MEL-5 melanoma; U251 CNS; SK-MEL-2 melanoma; MDA-MB-435; TK-10 renal.
What all share (assay): NCI-60 cell line screen, 48 h

In the case of `O=C(NNc1nc2cc(F)ccc2n2c(CN3CCOCC3)ccc12)c1ccccc1`, the GI50 in the assay with LOX IMVI melanoma was 0.119 µM; in the assay with SNB-19 CNS, 0.311 µM; with DU-145 prostate, 0.358 µM; with MDA-MB-231 breast, 0.443 µM; in the assay with RPMI-8226 leukemia, 0.263 µM; in the assay with SK-MEL-5 melanoma, 0.438 µM. For the same compound, the GI50 in the assay with U251 CNS was 0.207 µM; in the assay with SK-MEL-2 melanoma, 1.04 µM; in the assay on MDA-MB-435, 0.603 µM; in the assay with TK-10 renal, 0.276 µM. In addition, the TGI in the assay with LOX IMVI melanoma came out at 1.43 µM; with SNB-19 CNS it was 2.27 µM; in the assay on DU-145 prostate, 4.78 µM; in the assay on MDA-MB-231 breast, 2.45 µM; in the assay on RPMI-8226 leukemia it was 2.6 µM; in the assay on SK-MEL-5 melanoma, 2.06 µM. Besides, the TGI in the assay with U251 CNS is 2.19 µM; in the assay with SK-MEL-2 melanoma, 8.06 µM; in the assay with MDA-MB-435, 2.4 µM; in the assay with TK-10 renal, 7.07 µM.
Take `COC1/C=C/O[C@@]2(C)Oc3c(C)c(O)c4c(O)c(cc(O)c4c3C2=O)NC(=O)/C(C)=C\C=C\[C@H](C)C(O)[C@@H](C)[C@@H](O)[C@@H](C)[C@H](OC(C)=O)[C@@H]1C` (stereo partly drawn): the TGI is 26.1 µM and 29.5 µM in the assay on LOX IMVI melanoma; 220 µM in the assay with SNB-19 CNS; 26.8 µM and 54.5 µM in the assay with DU-145 prostate; 27.2 µM and 56.2 µM in the assay with MDA-MB-231 breast; 17.2 µM and 47.4 µM in the assay with RPMI-8226 leukemia; 67.6 µM and 88.1 µM in the assay on SK-MEL-5 melanoma. The TGI with U251 CNS is 30.1 µM and 116 µM; in the assay with SK-MEL-2 melanoma, 30 µM and 45.2 µM; with MDA-MB-435 it was 31.6 µM and 40.4 µM; with TK-10 renal it was 32.1 µM and 39.1 µM. Moreover, the GI50 in the assay on SNB-19 CNS was 51.8 µM; in the assay with DU-145 prostate, 12.3 µM; with MDA-MB-231 breast it was 14.2 µM; with RPMI-8226 leukemia it was 2.14 µM and 7.37 µM; with SK-MEL-5 melanoma, 25.6 µM; with U251 CNS it was 16.5 µM. The GI50 in the assay on MDA-MB-435 is 17.2 µM.
On to `CCCOC(=O)N[C@H]1CCc2c(Br)c(OC)c(OC)c(OC)c2-c2ccc(SC)c(=O)cc21`, for which the GI50 in the assay on LOX IMVI melanoma was under 0.0177 µM; in the assay on SNB-19 CNS, 0.0425 µM; with DU-145 prostate, 0.0305 µM; in the assay with MDA-MB-231 breast, 0.0359 µM; with RPMI-8226 leukemia, 0.0259 µM; in the assay on SK-MEL-5 melanoma, 0.0162 µM. The GI50 with U251 CNS was 0.0363 µM; in the assay with SK-MEL-2 melanoma it was 2.44 µM; in the assay on MDA-MB-435 it was under 0.01 µM; in the assay with TK-10 renal, 4.67 µM. Besides, the TGI is 11.5 µM in the assay with LOX IMVI melanoma; over 100 µM in the assay on SNB-19 CNS; 0.234 µM in the assay with DU-145 prostate; 6.45 µM in the assay with MDA-MB-231 breast; 10.4 µM in the assay with RPMI-8226 leukemia; 0.0501 µM in the assay on SK-MEL-5 melanoma. Also, the TGI in the assay with U251 CNS was 15.1 µM; with SK-MEL-2 melanoma it was 37.1 µM; in the assay with MDA-MB-435, 0.0189 µM; in the assay on TK-10 renal, over 76.6 µM.
On to `Cc1cc(N(CCCl)CCCl)ccc1C=Nc1cccnc1`, for which the GI50 in the assay with LOX IMVI melanoma is 12.7 µM; with SNB-19 CNS it was 59.9 µM; in the assay on DU-145 prostate it was 4.62 µM; in the assay on MDA-MB-231 breast, 67.6 µM; in the assay with RPMI-8226 leukemia, 21.1 µM; with SK-MEL-5 melanoma it was 14.6 µM. The GI50 in the assay with U251 CNS was 18.5 µM; with SK-MEL-2 melanoma, 7.57 µM; in the assay on MDA-MB-435, 37.8 µM; with TK-10 renal, 10.4 µM. In addition, the TGI is over 100 µM in the assay with LOX IMVI melanoma; over 100 µM in the assay with SNB-19 CNS; 42.9 µM with DU-145 prostate; over 100 µM with MDA-MB-231 breast; over 100 µM in the assay with RPMI-8226 leukemia; 41.7 µM in the assay on SK-MEL-5 melanoma. In addition, the TGI in the assay on U251 CNS is over 100 µM; with SK-MEL-2 melanoma it was over 50.1 µM; with MDA-MB-435, over 100 µM; in the assay on TK-10 renal, over 66 µM.
As to `Cc1c(Cl)cccc1NC(=O)CC1Sc2ccccc2NC1=O` (stereo not drawn), the TGI in the assay on LOX IMVI melanoma was 83.8 µM and > 100 µM; in the assay on SNB-19 CNS it was 52.8 µM and 42.5 µM; in the assay on DU-145 prostate, over 100 µM; in the assay with MDA-MB-231 breast, 32.1 µM; in the assay on RPMI-8226 leukemia, over 100 µM; in the assay with SK-MEL-5 melanoma it was 67.7 µM and > 100 µM. In addition, the TGI is 34.9 µM and 33.6 µM with U251 CNS; 59.6 µM and 41.9 µM in the assay with SK-MEL-2 melanoma; 9.79 µM in the assay on MDA-MB-435; 49.6 µM and > 100 µM in the assay with TK-10 renal. The GI50 in the assay with TK-10 renal is 20.8 µM and 48.2 µM.
Regarding `COc1ccccc1-c1cc2c3c(nc4ccccc42)C(=O)c2cccnc2-c3n1`, the GI50 was 2.13 µM in the assay on LOX IMVI melanoma; 17.4 µM with SNB-19 CNS; 13.8 µM in the assay with DU-145 prostate; 18.2 µM in the assay with MDA-MB-231 breast; 34.6 µM in the assay on RPMI-8226 leukemia; 12.5 µM with SK-MEL-5 melanoma. Also, the GI50 with U251 CNS is 3.77 µM; in the assay with SK-MEL-2 melanoma it was 17.5 µM; in the assay on MDA-MB-435, 12.5 µM; in the assay on TK-10 renal it was 14.8 µM. In addition, the TGI was 4.89 µM in the assay on LOX IMVI melanoma; 33.8 µM in the assay with SNB-19 CNS; 28.5 µM in the assay on DU-145 prostate; over 56.7 µM in the assay on MDA-MB-231 breast; over 100 µM in the assay on RPMI-8226 leukemia; 25.4 µM in the assay with SK-MEL-5 melanoma. For the same compound, the TGI is 11.4 µM in the assay on U251 CNS, 47.8 µM with SK-MEL-2 melanoma, 33.3 µM in the assay with MDA-MB-435 and 29.6 µM in the assay with TK-10 renal.
For `O=C1C(=O)c2ccc(Br)cc2-c2cc(Br)ccc21`, the GI50 in the assay with LOX IMVI melanoma was 0.717 µM; with SNB-19 CNS, 11 µM; in the assay with DU-145 prostate it was 7.29 µM; with MDA-MB-231 breast, 0.82 µM; in the assay on RPMI-8226 leukemia it was 1.63 µM; with SK-MEL-5 melanoma it was 3.89 µM. Also, the GI50 in the assay on U251 CNS was 1.42 µM; in the assay with SK-MEL-2 melanoma, 10.4 µM; in the assay on MDA-MB-435 it was 1.76 µM; with TK-10 renal it was 22.7 µM. In addition, the TGI in the assay with LOX IMVI melanoma is 2.13 µM; in the assay with SNB-19 CNS, over 100 µM; with DU-145 prostate, over 100 µM; in the assay on MDA-MB-231 breast, 2.54 µM; in the assay on RPMI-8226 leukemia, 6.82 µM; with SK-MEL-5 melanoma, over 33 µM. Further, the TGI is 9.04 µM in the assay with U251 CNS, over 100 µM in the assay with SK-MEL-2 melanoma, 4.07 µM in the assay with MDA-MB-435 and over 100 µM in the assay on TK-10 renal.
In the case of `COc1ccc(C2C3=C(NC(=O)C2C#N)c2ccc4ccccc4c2OCC3)cc1` (stereo not drawn), the GI50 is 18.6 µM with LOX IMVI melanoma; 58.8 µM with SNB-19 CNS; 31.4 µM with DU-145 prostate; 17.9 µM in the assay with MDA-MB-231 breast; over 100 µM in the assay with RPMI-8226 leukemia; over 100 µM in the assay on SK-MEL-5 melanoma. The GI50 is 23.6 µM in the assay on U251 CNS, over 100 µM in the assay with SK-MEL-2 melanoma, over 100 µM with MDA-MB-435 and 29.5 µM in the assay with TK-10 renal. For the same compound, the TGI is 37.5 µM in the assay on LOX IMVI melanoma; over 100 µM with SNB-19 CNS; over 100 µM in the assay with DU-145 prostate; 43.2 µM in the assay with MDA-MB-231 breast; over 100 µM in the assay with RPMI-8226 leukemia; over 100 µM with SK-MEL-5 melanoma. The TGI was 54.2 µM in the assay on U251 CNS, over 100 µM in the assay with SK-MEL-2 melanoma, over 100 µM in the assay on MDA-MB-435 and 76.8 µM in the assay on TK-10 renal.

Source of the values: PubChem BioAssay (NCI).
